Experimental data published in patent publication US8906868B2, “Aminoglycoside derivatives” (Rempex Pharmaceuticals, Inc., priority 2010, dated 2014).
In brackets after ≈: the same amount, converted by molar mass. Where two headings read alike, the source gives them in different places.

What was measured:
[1] = test system: ACM1006 acc(6′)-Ib; assay: microbe, parasite or virus in culture; format: cell-based, Acinetobacter baumannii; details: Acinetobacter baumannii; Table 4; read-out: Compound MIC on Bacterial Strains: Acinetobacter baumannii ACM1006 acc(6′)-Ib
Description: (§1) To compare microbiological activity of the test compounds, minimum inhibitory concentrations (MIC.s) were determined. Antibiotic MICs were obtained using the broth microdilution method according to Clinical and Laboratory Standards Institute (CLSI) approved guidelines (Methods for dilution antimicrobial susceptibility tests for bacteria that grow aerobically; approved standard—7th ed. CLSI document M7-A7. Clinical and Laboratory Standards Institute, Wayne, Pa., incorporated herein by reference in its entirety). Antibiotics were dissolved as specified by CLSI (Performance standards for antimicrobial susceptibility testing; Seventeenth informational supplement. CLSI document M100-S17. Clinical and Laboratory Standards Institute, Wayne, Pa., incorporated herein by reference in its entirety), and were serially diluted 2-fold in cation adjusted Mueller Hinton Broth (CaMHB) at 2× concentration. Bacterial inoculums were prepared in CaMHB by suspension of a colony from an agar plate that was prepared the previous day to obtain a final concentration of 5×10^5CFU/ml. The plates were incubated for 18 hours at 35° C. […] MIC.s were determined by reading the turbidity of plate wells using a SpectraMax Plus384 plate reader (Molecular Devices, Sunnyvale, Calif., USA) at 600 nm and were confirmed by visual inspection.

[2] = test system: Acinetobacter baumannii (ATCC 19606); assay: MIC, broth microdilution; details: Acinetobacter baumannii, ATCC19606, read-out: Compound MIC on Bacterial Strains: A. baumannii ATCC 19606
[3] = test system: Sa 287 aac(6′) + aph(2″); assay: microbe, parasite or virus in culture; format: cell-based, Staphylococcus aureus; details: Staphylococcus aureus, 18 h; Table 5; read-out: Compound MIC on Bacterial Strains: Staphylococcus aureus Sa 287 aac(6′) + aph(2″)
Description: as §1

[4] = test system: Staphylococcus aureus (ATCC 29213); assay: MIC, broth microdilution; details: Staphylococcus aureus
[5] = test system: Klebsiella pneumonia (ATCC 43816); assay: MIC, broth microdilution; details: Klebsiella pneumoniae, ATCC43816, read-out: Compound MIC on Bacterial Strains: K. pneumonia ATCC 43816
[6] = test system: Escherichia coli (ATCC 25922); assay: MIC, broth microdilution; details: Escherichia coli
[7] = test system: Pseudomonas aeruginosa (ATCC 27853); assay: MIC, broth microdilution; details: Pseudomonas aeruginosa
[8] = test system: ECM6007 aac(6′) + aph(2″); assay: microbe, parasite or virus in culture; format: cell-based, Escherichia coli; details: Escherichia coli, 18 h; Table 4; read-out: Compound MIC on Bacterial Strains: Escherichia coli ECM6007 aac(6′) + aph(2″)
Description: as §1

[9] = test system: EC1001 acc(6′)-Ib; assay: microbe, parasite or virus in culture; format: cell-based, Escherichia coli; details: Escherichia coli; Table 4; read-out: Compound MIC on Bacterial Strains: Escherichia coli EC1001 acc(6′)-Ib
Description: as §1

[10] = test system: ACM1005 ATCC 19004; assay: MIC, broth microdilution; format: cell-based, Acinetobacter baumannii; details: Acinetobacter baumannii, ATCC19004; Table 4; read-out: Compound MIC on Bacterial Strains: Acinetobacter baumannii ACM1005 ATCC 19004
Description: as §1

[11] = test system: EC1002 aph(3′)-IV; assay: organism not typed; format: cell-based; details: read-out: Compound MIC on Bacterial Strains: EC1002 aph(3′)-IV
Description: as §1
(§2) Activity of the test compounds was determined using QC strains and strains with known aminoglycoside resistance mechanisms (TABLE 3). This specific panel contained strains expressing enzymes that covalently modify N2″, N3 and N3′ positions.

[12] = test system: ECM6010 ant(2″)-I; assay: microbe, parasite or virus in culture; format: cell-based, Escherichia coli; details: Escherichia coli, read-out: Compound MIC on Bacterial Strains: ECM6010 ant(2″)-I
Description: as §1, §2

[13] = test system: ECM6009 aac(3)-II; assay: microbe, parasite or virus in culture; format: cell-based, Escherichia coli; details: Escherichia coli, read-out: Compound MIC on Bacterial Strains: ECM6009 aac(3)-II
Description: as §1, §2

[14] = test system: ECM6011 aph(3′)-I; assay: microbe, parasite or virus in culture; format: cell-based, Escherichia coli; details: Escherichia coli, read-out: Compound MIC on Bacterial Strains: ECM6011 aph(3′)-I
Description: as §1, §2

[15] = test system: ECM6006 aph(3′)-III; assay: microbe, parasite or virus in culture; format: cell-based, Escherichia coli; details: Escherichia coli, read-out: Compound MIC on Bacterial Strains: ECM6006 aph(3′)-III
Description: as §1, §2

[16] = test system: ECM6003 rmtB; assay: microbe, parasite or virus in culture; format: cell-based, Escherichia coli; details: Escherichia coli; Table 3; read-out: Compound MIC on Bacterial Strains: ECM6003 rmtB
Description: as §1, §2
The panel also contained a strain expressing ribosomal RNA methylase, RmtB.

[17] = test system: PAM3072 aac(6′)-II; assay: microbe, parasite or virus in culture; format: cell-based, Pseudomonas aeruginosa; details: Pseudomonas aeruginosa, Table 5; read-out: Compound MIC on Bacterial Strains: Pseudomonas aeruginosa PAM3072 aac(6′)-II
Description: as §1

[18] = test system: PAM3073 aac(6′)-I; assay: microbe, parasite or virus in culture; format: cell-based, Pseudomonas aeruginosa; details: Pseudomonas aeruginosa, Table 5; read-out: Compound MIC on Bacterial Strains: Pseudomonas aeruginosa PAM3073 aac(6′)-I
Description: as §1

[19] = ATCC29213, read-out: Compound MIC on Bacterial Strains: S. aureus ATCC 29213, QC strain, Table 2
[20] = ATCC29213, read-out: Compound MIC on Bacterial Strains: Staphylococcus aureus SAM1000 ATCC 29213, Table 5
[21] = ATCC25922, read-out: Compound MIC on Bacterial Strains: E. coli ATCC 25922
[22] = ATCC25922, read-out: Compound MIC on Bacterial Strains: ECM6000 ATCC 25922
[23] = ATCC25922, read-out: Compound MIC on Bacterial Strains: Escherichia coli ECM6000 ATCC 25922
[24] = ATCC27853, read-out: Compound MIC on Bacterial Strains: P. aeruginosa ATCC 27853
[25] = ATCC27853, read-out: Compound MIC on Bacterial Strains: Pseudomonas aeruginosa PAM3034 ATCC 27853

Structure (SMILES) | MIC [1] [mg/L] | MIC [2] [mg/L] | MIC [4, 19] [mg/L] | MIC [4, 20] [mg/L] | MIC [5] [mg/L] | MIC [6, 21] [mg/L] | MIC [6, 22] [mg/L] | MIC [6, 23] [mg/L] | MIC [7, 24] [mg/L] | MIC [7, 25] [mg/L] | MIC [8] [mg/L] | MIC [9] [mg/L] | MIC [10] [mg/L] | MIC [11] [mg/L] | MIC [12] [mg/L] | MIC [13] [mg/L] | MIC [14] [mg/L] | MIC [15] [mg/L] | MIC [16] [mg/L] | MIC [17] [mg/L] | also measured
NCC[C@H](O)C(=O)N[C@@H]1C[C@H](N)[C@@H](O[C@H]2O[C@H](CN)[C@@H](O)[C@H](O)[C@H]2O)[C@H](O)[C@H]1O[C@H]1O[C@H](CO)[C@@H](O)[C@H](N)[C@H]1O [Amikacin, reference compound] | 1 to 8 (≈ 1.71 to 13.7 µM) | 1 to 8 (≈ 1.71 to 13.7 µM) | 1 to 8 (≈ 1.71 to 13.7 µM) | < 1 | < 1 | 1 to 8 (≈ 1.71 to 13.7 µM) | 1 to 8 (≈ 1.71 to 13.7 µM) | 1 to 8 (≈ 1.71 to 13.7 µM) | 1 to 8 (≈ 1.71 to 13.7 µM) | 1 to 8 (≈ 1.71 to 13.7 µM) | < 1 | > 8 | < 1 | > 8 | 1 to 8 (≈ 1.71 to 13.7 µM) | < 1 | 1 to 8 (≈ 1.71 to 13.7 µM) | 1 to 8 (≈ 1.71 to 13.7 µM) | > 8 | – | MIC [3]: > 8 mg/L
CN[C@@H]1C(O)[C@@H](OC2C(O)C(O[C@H]3O[C@H](CN)CCC3N)[C@@H](N)C[C@H]2NC(=N)CO)OCC1(C)O (stereo partly drawn) [Compound 22, N-((1R,2S,3S,4R,5S)-5-amino-4-((2R,3R,6S)-3-amino-6-(aminomethyl)tetrahydro-2H-pyran-2-vlxy)-2-((2R,3R,4R,5R)-3,5-dihydroxy-5-methyl-4-(methylamino)tetrahydro-2H-pyran-2-yloxy)-3-hydroxycyclohexyl)-2-hydroxy acetimidamide] | > 8 | > 8 | < 1 | < 1 | < 1 | 1 to 8 (≈ 1.97 to 15.8 µM) | 1 to 8 (≈ 1.97 to 15.8 µM) | 1 to 8 (≈ 1.97 to 15.8 µM) | < 1 | 1 to 8 (≈ 1.97 to 15.8 µM) | 1 to 8 | > 8 | 1 to 8 (≈ 1.97 to 15.8 µM) | 1 to 8 (≈ 1.97 to 15.8 µM) | > 8 | > 8 | 1 to 8 (≈ 1.97 to 15.8 µM) | 1 to 8 (≈ 1.97 to 15.8 µM) | > 8 | > 8 | MIC [18]: 1 to 8 mg/L (≈ 1.97 to 15.8 µM)
CN[C@@H]1[C@@H](O)[C@@H](O[C@@H]2[C@@H](O)[C@H](O[C@H]3O[C@H](CNCCO)CC[C@H]3N)[C@@H](N)C[C@H]2NC(=O)[C@@H](O)CCCN)OC[C@]1(C)O [Compound 40, (S)-5-amino-N-((1R,2S,3S,4R,5S)-5-amino-4-((2R,3R,6S)-3-amino-6-((2-hydroxyethylamino)methyl)tetrahydro-2H-pyran-2-yloxy)-2-((2R,3R,4R,5R)-3,5-dihydroxy-5-methyl-4-(methylamino)tetrahydro-2H-pyran-2-yloxy)-3-hydroxycyclohexyl)-2-hydroxypentanamide] | 1 to 8 (≈ 1.64 to 13.1 µM) | > 8 | 1 to 8 (≈ 1.64 to 13.1 µM) | 1 to 8 (≈ 1.64 to 13.1 µM) | < 1 | 1 to 8 (≈ 1.64 to 13.1 µM) | 1 to 8 (≈ 1.64 to 13.1 µM) | 1 to 8 (≈ 1.64 to 13.1 µM) | > 8 | > 8 | < 1 | 1 to 8 (≈ 1.64 to 13.1 µM) | 1 to 8 (≈ 1.64 to 13.1 µM) | 1 to 8 (≈ 1.64 to 13.1 µM) | < 1 | < 1 | < 1 | 1 to 8 (≈ 1.64 to 13.1 µM) | > 8 | > 8 | MIC [18]: 1 to 8 mg/L (≈ 1.64 to 13.1 µM)
CN[C@@H]1[C@@H](O)[C@@H](O[C@@H]2[C@@H](O)[C@H](O[C@H]3O[C@H](CNCCO)CC[C@H]3N)[C@@H](N)C[C@H]2NC(=O)C2(O)CNC2)OC[C@]1(C)O [Compound 43, N-((1R,2S,3S,4R,5S)-5-amino-4-((2R,3R,6S)-3-amino-6-((2-hydroxyethylamino)methyl)tetrahydro-2H-pyran-2-yloxy)-2-((2R,3R,4R,5R)-3,5-dihydroxy-5-methyl-4-(methylamino)tetrahydro-2H-pyran-2-yloxy)-3-hydroxycyclohexyl)-3-hydroxyazetidine-3-carboxamide] | < 1 | > 8 | < 1 | < 1 | < 1 | < 1 | < 1 | < 1 | 1 to 8 (≈ 1.69 to 13.5 µM) | 1 to 8 (≈ 1.69 to 13.5 µM) | < 1 | 1 to 8 (≈ 1.69 to 13.5 µM) | 1 to 8 (≈ 1.69 to 13.5 µM) | 1 to 8 (≈ 1.69 to 13.5 µM) | < 1 | 1 to 8 (≈ 1.69 to 13.5 µM) | < 1 | < 1 | > 8 | > 8 | MIC [18]: 1 to 8 mg/L (≈ 1.69 to 13.5 µM)
CN[C@@H]1[C@@H](O)[C@@H](O[C@@H]2[C@@H](O)[C@H](O[C@H]3O[C@H](CNCCF)CC[C@H]3N)[C@@H](N)C[C@H]2NC(=O)[C@@H](O)CN)OC[C@]1(C)O [Compound 46, (S)-3-amino-N-((1R,2S,3S,4R,5S)-5-amino-4-((2R,3R,6S)-3-amino-6-((2-fluoroethylamino)methyl)tetrahydro-2H-pyran-2-yloxy)-2-((2R,3R,4R,5R)-3,5-dihydroxy-5-methyl-4-(methylamino)tetrahydro-2H-pyran-2-yloxy)-3-hydroxycyclohexyl)-2-hydroxypropanamide] | 1 to 8 (≈ 1.72 to 13.7 µM) | > 8 | < 1 | < 1 | < 1 | < 1 | < 1 | < 1 | 1 to 8 (≈ 1.72 to 13.7 µM) | 1 to 8 (≈ 1.72 to 13.7 µM) | < 1 | 1 to 8 (≈ 1.72 to 13.7 µM) | 1 to 8 (≈ 1.72 to 13.7 µM) | < 1 | < 1 | < 1 | < 1 | < 1 | > 8 | > 8 | MIC [18]: 1 to 8 mg/L (≈ 1.72 to 13.7 µM)
CCN[C@@H]1C[C@H](N)[C@@H](O[C@H]2OC(CN)=CC[C@H]2N)[C@H](O)[C@H]1O[C@H]1OC[C@](C)(O)[C@H](NC)[C@H]1O [Netilmicin, reference compound] | > 8 | > 8 | < 1 | < 1 | < 1 | < 1 | < 1 | < 1 | 1 to 8 (≈ 2.1 to 16.8 µM) | 1 to 8 (≈ 2.1 to 16.8 µM) | < 1 | > 8 | 1 to 8 (≈ 2.1 to 16.8 µM) | < 1 | < 1 | > 8 | < 1 | < 1 | > 8 | > 8 | MIC [18]: > 8 mg/L
